In patent US11331312B2, “Treatment of H-Ras-driven tumors” (MEMORIAL SLOAN-KETTERING CANCER CENTER, priority 2014, dated 2022):
Entries after “also recorded” stand apart in the source; their conditions may differ.

Tests used:
[1] = system: Hras-G12V+/+/p53-null thyroid cancers; test: 2-week FTI treatment of mice with thyroid cancers, tumor volume by 3D ultrasound; type: in vivo, mouse; settings: 80 mg/kg twice daily by gavage, 2 weeks (14 days)
Procedure: FIG. 3 is a schematic showing the design of the in vivo study of tipifarnib in Tpo-Cre/FR-Hras^G12V/p53^flox/flox mice. Mice were treated for 14 days with tipifarnib 80 mg/kg BID by gavage. Tipifarnib was prepared in 20% beta-cyclodextran. 3D ultrasound was performed before and after treatment to assess percent change in tumor volume.
Tumors in each treatment group were sized matched at the beginning of therapy.
FIG. 5 is a waterfall plot of the same mice but with an additional cohort of mice treated with lonafarnib added. Of note the lonafarnib treated mice were not size matched to the vehicle group.
(§1) The activity of these compounds in vivo was explored. Mice were treated for 2 weeks with tipifarnib or lonafarnib at 80 mg/kg twice daily (drug mixed in 20% beta-cyclodextran and given by gavage). […] Treatment with FTIs was well tolerated in the mice with no significant differences in animal weight between vehicle and drug at 14 days (FIG. 6). Next mice were treated with Tipifarnib or vehicle for an extended time course. Of note, for this experiment tumors in each group were size-matched at the time of treatment initiation (FIG. 8).

HP-ATC1 cells = test: 6 day proliferation assay in HP-ATC1 mouse cell line; type: cell-based; settings: 1.5% serum, 6 day assay, increasing concentrations of drug
Procedure: (§2) FIGS. 2A and B show the results of exposure of mouse cell lines from tumor bearing Tpo-Cre/FR-HrasG12V/p53flox/flox mice to farnesyltransferase inhibitors. Mouse cell lines were generated from tumor bearing Tpo-Cre/FR-HrasG12V/p53flox/flox mice by collagenase/dispase digestion and maintained in Coon's F-12 media with serum. After 15 passages, cells were plated in 1.5% serum and exposed to increasing concentrations of indicated drug. (A) Western blots were performed for indicated proteins (antibodies from Cell Signaling with exception of Hras which was from Santa Cruz).
(§3) Development and characterization of mouse cell lines from TPO-Cre, Hras-G12V+/+, p53f/f mice: In order to study this model in vitro, we developed a mouse cell line (HP-ATC1) from an animal with ATC. The cell line was confirmed to harbor the HrasG12V mutation, and maintained primary tumor characteristics, including its spindle shape and the relative expression of E-cadherin and vimentin through serial passaging (x6-10).
(§4) The FTIs Tipifarnib and Lonafarnib block MAPK signaling and growth of mouse Tpo-Cre, HRas-G12V+/+, p53f/f cell line: There are currently no therapies that directly target oncogenic forms of oncogenic Ras.
(§5) Mouse cell lines were generated from tumor bearing Tpo-Cre/FR-HrasG12V/p53flox/flox mice by collagenase/dispase digestion and maintained in Coon's F-12 media with serum. […]

[2] = system: MAPK pathway signaling effectors; test: Western blots of MAPK pathway signaling effectors in HP-ATC1 mouse cell line; type: cell-based; settings: HP-ATC1 cells, 1.5% serum, increasing concentrations of drug, Western blot
Procedure: as §2, §3, §4, §5

[3] = Body weight and tolerability of treated mice; type: in vivo, mouse; settings: 80 mg/kg BID
Procedure: as §1

Compound | change in thyroid tumor volume (ultrasound) compared to vehicle-treated mice [1] | inhibition of proliferation (HP-ATC1 cells) | inhibition of MAPK effector phosphorylation [2] | animal weight, drug vs vehicle ([3]; 14 days) | toxicity / tolerability ([3]; two weeks of treatment)
NC(=O)N1CCC(CC(=O)N2CCC([C@H]3c4ncc(Br)cc4CCc4cc(Cl)cc(Br)c43)CC2)CC1 [lonafarnib] | Consistent inhibition of growth; also recorded: Significant reduction in thyroid tumor volume | dose-dependent inhibition of proliferation | dose-dependent inhibition | – | –
Cn1cncc1[C@@](N)(c1ccc(Cl)cc1)c1ccc2c(c1)c(-c1cccc(Cl)c1)cc(=O)n2C [tipifarnib] | – | – | – | No differences | minimal toxicity
